Measured values reported in patent US20260053847A1, “HYDROGEN-GAS-CONTAINING DRUG FOR CAUSAL TREATMENT OF ALZHEIMER'S DISEASE (DISEASE-MODIFYING DRUG)” (H2 GLOBAL GROUP S.R.O., priority 2022, published 2026).
Read-outs that look alike come from different tables or passages of the source.

Experiments:
[1] = system: patient with a severe form of Alzheimer's disease; conditions: one patient
Protocol: (§1) For explanation, we note that MRIs of the brain were performed • at the radiology department of Nishijima Hospital and the results were sent to the doctors via an electronic charting system. Digital tractographic imaging was performed using Neuro3D and GRAPPA technology, with five starting points set at locations where nerve bundles passed through the entire hippocampus. DTI was obtained at fractional anisotropy (FA) values of 0.1 and 0.2. The size of the pathway (tract) was calculated from the number of pixels in the pathway (tract) display, the number of pixels was calculated using Image J software. DTI at a fractional anisotropy (FA) value of 0.1 reflects visualization of the neuron as a whole, DTI reflects at a fractional anisotropy (FA) value of 0.2 • to the neural quality of the height visualisation.
(§2) A patient with a severe form of Alzheimer's disease with incontinence of stool and urine was given an inhaled gas mixture containing 3% (v/v) hydrogen gas and 21% (v/v) oxygen gas 2× daily for one hour.
The neural quality was assessed using advanced magnetic resonance imaging technology using the diffusion tensor imaging procedure.

[2] = system: patients with Alzheimer's disease; conditions: for DTI area at FA value of 0.2 (neural quality): FIG. 3; for normalised DTI value FA=0.2/FA=0.1, statistical analysis: Student's t-test
Protocol: as §1
For example, the progression of nerve fibers in the hippocampal region of the temporal lobe of the subject's brain can be monitored using diffusion tensor imaging [DTI] and the area of nerve fibers monitored can be analyzed using the process procedures described below. • i) the process of generating a diffusion tensor imaging [DTI] image extracted from the course of nerve fibers in the hippocampal region of the temporal lobe of the subject's brain; • ii) the process of setting five control inputs at regular intervals so that the nerve fiber pathways extracted by process (i) pass through them; • iii) a process in which the fractional anisotropy (FA) is set to 0.2 and an image of the extracted nerve fibers in the hippocampus region is obtained; • iv) a process in which the area of the nerve fiber path is calculated from the number of pixels in the image obtained during the process iii); • v) the process of detecting the manifestations of dementia or predementia based on the measured values of the area of nerve fiber pathways.
In the method described above, the hippocampal region refers to the hippocampal region and the parahippocampal gyrus region; the extracted images of nerve fibers in the hippocampal region are from the lateral and axial views.
When the fractional anisotropy (FA) value is set to 0.1, the extracted image of nerve fibers in the hippocampus region is obtained, and in the process of calculating the area of nerve fiber pathways from the number of pixels in a given image, the area of nerve pathways at FA 0.2 is divided by the area of nerve pathways at FA 0.1 to calculate the FA ratio (normalization).
(§3) A mixture of hydrogen gas 3% (v/v) and oxygen gas 21% (v/v) was administered to 8 patients with Alzheimer's disease for 1 hour 2× per day. Inhalation was continued for a period of 6 months, after which hydrogen gas inhalation was discontinued and progress monitored.
(§4) Treatment efficacy was assessed by clinical assessment using ADAS-cog and neural quality (integrity) was assessed by MRI using DTI.
For a more accurate quantitative analysis, normalization was performed for each measurement. Data variability was corrected by dividing the F=0.2 value by the simultaneous F=0.1 value. The number of pixels in the corresponding neuronal bundle pathway at FA=0.2 was normalized (divided) by the number of pixels at FA=0.1, and the mean and standard error were obtained from the normalized values from 4 lateral and axial images from the right and left hemispheres of each patient. Statistical significance was assessed by Student's t-test, * indicates outputs for p¿ 0.05, ** for p¿ 0.01, indicating significant statistical significance of the results.

[3] = system: patient with a severe form of Alzheimer's disease with incontinence of stool and urine; conditions: one patient
Protocol: as §2
In more detail, the patient was a person who was diagnosed with typical Alzheimer's disease in 2011 and was administered Alzheimer's drugs such as Donepezil, Galantamine, Lithium, etc. The condition was progressively worsening, the ADAS-cog score was 48/70, it was a severe form of Alzheimer's disease.
The patient was unable to recall their date of birth at that time, but was able to walk to the toilet to urinate or defecate on their own. Due to the rapid deterioration of their condition, other treatments were not possible, so hydrogen gas inhalation was started as an adjunctive/complementary therapy on Apr. 19, 2019.

[4] = system: test subjects with the alipoprotein E4 (APOE4) genotype exhibiting mild cognitive impairment (MCI); conditions: APOE4 genotype subgroup of randomized clinical trials; Patent Document 1; cited from earlier work
[5] = Phase I clinical trials; cited from earlier work
[6] = system: patients with Alzheimer's disease; conditions: for changes in ADAS-cog scores versus control group not inhaling hydrogen gas: FIG. 2
Protocol: The ADAS-cog assesses and scores word list equipment, speaking ability, verbal comprehension, speech difficulties in spontaneous speech, completion of commands, object and finger naming, constructional tasks, ideomotor skills, orientation, word recognition, and ability to reproduce test instructions. The range of scores is from 0 to 70, the higher the score, the greater the cognitive impairment (normal→several).
as §3, §4
Statistical significance was assessed by Student's t-test, * indicates outputs for p¿ 0.05, ** for p¿ 0.01, indicating significant statistical significance.

SMILES: [HH] [hydrogen gas, Molecular hydrogen]
- DTI display at FA=0.2 (qualitative neural quality) ([1]; FIG. 5D): new nerves have appeared
- area of nerve fibers visualized in the DTI at FA=0.2 ([1]; after 2 years of inhalation, FIG. 5): increased
- changes in DTI over time (effect of inhalation) ([1]; after 6 months of hydrogen gas inhalation, FIG. 5): the effect did not appear
- number of pixels (DTI area) at F=0.1 and F=0.2 ([1]; after two years of inhalation (29 to 53 months), FIG. 6): slight increase in the number of pixels
- normalised DTI value FA=0.2/FA=0.1 ([2]; 1 year after end of treatment, compared with pre-treatment condition, FIG. 4): beneficial effect, compared with the pre-treatment condition, persisting
- DTI area at FA value of 0.2 (neural quality) ([2]; 6 months after cessation of hydrogen gas inhalation): persisted
- normalised DTI value FA=0.2/FA=0.1, statistical analysis ([2]; 6 months after the end of treatment, FIG. 4): significant effect persisting
- DTI area at FA value of 0.2 (neural quality) ([2]; after 6 months of continuous hydrogen gas inhalation, 9 patients as printed): neural quality was improved
- normalised DTI value FA=0.2/FA=0.1, statistical analysis ([2]; after 6 months of inhalation, FIG. 4): significant effect
- DTI area at FA value of 0.2 (neural quality) ([2]; one year after the end of inhalation, compared with start of inhalation): able to maintain a favorable result compared with the condition at the start of inhalation
- ability to urinate and defecate (incontinence of stool and urine) ([3]; ADAS-cog 48/70, 3% (v/v) hydrogen + 21% (v/v) oxygen 2x daily for one hour, after two years of inhalation): able to urinate and defecate on their own
- fecal incontinence, frequency or severity of difficulties ([3]; January 2020, inhalation started Apr. 19, 2019): no improvement in the frequency or severity of difficulties
- independent defecation ([3]; since Nov. 18, 2020, inhalation started Apr. 19, 2019): able to go and defecate on their own in almost all cases
- condition of subjects with mild cognitive impairment [4]: improved the condition
- safety of hydrogen gas inhalation [5]: safety of hydrogen gas inhalation has been confirmed
- changes in ADAS-cog scores versus control group not inhaling hydrogen gas ([6]; 6 months after cessation of inhalation, control 19 patients from past data): improvement persisted
- average change in clinical symptoms assessed by ADAS-cog (cognitive function) ([6]; 8 patients, hydrogen gas 3% (v/v) + oxygen 21% (v/v), 1 hour 2x per day, continuous inhalation for 6 months, FIG. 1): an initial deterioration, but soon showed an improvement in cognitive function
- average change in clinical symptoms assessed by ADAS-cog (cognitive impairment) ([6]; 8 patients, six months or one year after cessation of 6-month inhalation, compared to before treatment, FIG. 1): marked improvement in cognitive impairment
- statistical significance of effect on ADAS-cog versus control and on normalised DTI ([6]; after hydrogen gas inhalation, FIGS. 2 and 4): statistically significant effect
- changes in ADAS-cog scores versus control group not inhaling hydrogen gas ([6]; one year after cessation of treatment, compared to pre-treatment status): the improvement persisted compared to the pre-treatment status
